Assay results reported in US10858342B2, “Bicyclic imidazole derivatives useful for the treatment of renal diseases, cardiovascular diseases and fibrotic diseases” (Boehringer Ingelheim International GmbH, priority 2016, dated 2020).

Experiments:
Assay type in all cases: biochemical, cynomolgus monkey
[1] = molecular target: cortisol synthase (CYP11B1) (Macaca fascicularis, UniProt A0A2K5ULY1); assay: Inhibition of cortisol synthesis (cynomolgus adrenal mitochondria, cortisol by mass spectrometry); settings: 11-deoxycortisol substrate, 150 units CYP11B1; read-out: Cortisol Inhibition IC50
In short: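 Cynomolgus adrenal mitochondria (150 units CYP11B1 activity) incubated with 11-deoxycortisol in 100 mM potassium phosphate pH 7.4, 1% DMSO; reaction started with 1 mM NADPH, 90 min at 37° C, stopped with MeCN. Cortisol quantified by mass spectrometry; IC50 from 4-parameter logistic fit versus no-compound (100%) and no-NADPH (0%) controls.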

[2] = system: aldosterone synthase (CYP11B2); assay: Inhibition of aldosterone synthase (cynomolgus adrenal mitochondria, aldosterone by mass spectrometry); settings: selectivity for aldosterone synthase inhibition over cortisol synthase (CYP11B1) inhibition, fold
In short: (§1)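 Cynomolgus adrenal mitochondria (50 units CYP11B2 activity) incubated with 2 μM corticosterone in 100 mM potassium phosphate pH 7.4, 1% DMSO; started with 1 mM NADPH, 90 min at 37 °C. Aldosterone quantified by mass spectrometry; no-NADPH blank as 0%, no-compound as 100% activity, across compound concentrations.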

[3] = molecular target: aldosterone synthase (CYP11B2) (Macaca fascicularis, UniProt A0A2K5UPL9); assay: as above; settings: 2 μM corticosterone substrate, 50 units CYP11B2, 90 min, 37° C.; read-out: Aldosterone Inhibition IC50
In short: as §1

Chain of aldosterone synthase (CYP11B2) (Macaca fascicularis, UniProt A0A2K5UPL9) (A0A2K5UPL9 1-503): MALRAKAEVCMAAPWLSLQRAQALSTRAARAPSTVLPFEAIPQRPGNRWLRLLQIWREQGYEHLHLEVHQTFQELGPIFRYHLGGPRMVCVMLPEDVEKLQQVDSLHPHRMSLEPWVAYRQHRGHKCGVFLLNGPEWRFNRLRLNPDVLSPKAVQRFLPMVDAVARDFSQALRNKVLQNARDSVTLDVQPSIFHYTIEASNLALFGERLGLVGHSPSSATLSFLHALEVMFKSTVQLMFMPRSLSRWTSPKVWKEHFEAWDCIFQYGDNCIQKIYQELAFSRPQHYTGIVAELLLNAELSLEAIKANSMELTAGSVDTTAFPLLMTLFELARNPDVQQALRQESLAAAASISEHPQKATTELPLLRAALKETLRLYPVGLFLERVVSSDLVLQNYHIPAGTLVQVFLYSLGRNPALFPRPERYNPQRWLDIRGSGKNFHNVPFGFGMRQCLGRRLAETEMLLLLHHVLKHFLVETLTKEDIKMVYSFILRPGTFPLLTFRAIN

`O=C1CCCc2ncn(-c3ccc4c(c3)CCCN4)c21` [C-ABB, 3-(1,2,3,4-Tetrahydro-quinolin-6-yl)-3,5,6,7-tetrahydro-benzoimidazol-4-one] gave an IC50 [1] greater than 30 µM, a Selectivity [2] of 120 and an IC50 [3] of 0.25 µM.

With `CC1(C)CC(=O)c2c(ncn2CC2CCOC2)C1` (stereo not drawn) [C-ACX, 6,6-Dimethyl-3-(tetrahydro-furan-3-ylmethyl)-3,5,6,7-tetrahydro-benzoimidazol-4-one] the IC50 [1] was greater than 30 µM, the Selectivity [2] was 35 and the IC50 [3] was 0.87 µM.

`CC1(C)CC(=O)c2c(ncn2Cc2ccc(C(C)(C)O)cc2)C1` [C-ADV, 3-[4-(1-Hydroxy-1-methyl-ethyl)-benzyl]-6,6-dimethyl-3,5,6,7-tetrahydro-benzoimidazol-4-one] gave an IC50 [1] of 0.035 µM, a Selectivity [2] of 1.4 and an IC50 [3] of 0.025 µM.

Compound `CN(CCO)C(=O)c1ccc(Cn2cnc3c2C(=O)CC(C)(C)C3)cc1` [C-ADS, 4-(5,5-Dimethyl-7-oxo-4,5,6,7-tetrahydro-benzoimidazol-1-ylmethyl)-N-(2-hydroxy-ethyl)-N-methyl-benzamide] has an IC50 [1] of 43 µM, a Selectivity [2] of 150 and an IC50 [3] of 0.29 µM.

`Cn1ncc2ccc(-n3cnc4c3C(=O)CCC4)cc21` [C-AAH, 3-(1-Methyl-1H-indazol-6-yl)-3,5,67,-tetrahydro-benzoimidazol-4-one] gave an IC50 [1] greater than 30 µM, a Selectivity [2] of 630 and an IC50 [3] of 0.048 µM.

`CC1(C)CC(=O)c2c(ncn2C2CCc3ccccc3C2)C1` (stereo not drawn) [C-ADH, 6,6-Dimethyl-3-(1,2,3,4-tetrahydro-naphthalen-2-yl)-3,5,6,7-tetrahydro-benzoimidazol-4-one] showed an IC50 [1] of 29 µM, a Selectivity [2] of 2900 and an IC50 [3] of 0.01 µM.

In the case of `CC1(C)CC(=O)c2c(ncn2-c2ccc(C(F)(F)F)cc2)C1` [C-ACI, 6,6-Dimethyl-3-(4-trifluoromethyl-phenyl)-3,5,6,7-tetrahydro-benzoimidazol-4-one], the IC50 [1] is reported as 18 µM, the Selectivity [2] is reported as 290 and the IC50 [3] is reported as 0.062 µM.

With `CC1(C)CC(=O)c2c(ncn2-c2cccc(C(F)(F)F)c2)C1` [C-ABZ, 6,6-Dimethyl-3-(3-trifluoromethyl-phenyl)-3,5,6,7-tetrahydro-benzoimidazol-4-one] the IC50 [1] was 27 µM, the Selectivity [2] was 370 and the IC50 [3] was 0.073 µM.

With `CC1(C)CC(=O)c2c(ncn2C2CC3(COC3)C2)C1` [C-ACT, 6,6-Dimethyl-3-(2-oxa-spiro[3.3]hept-6-yl)-3,5,6,7-tetrahydro-benzoimidazol-4-one] the IC50 [1] was greater than 30 µM, the Selectivity [2] was 38 and the IC50 [3] was 0.78 µM.

`COc1ccc(-n2cnc3c2C(=O)CC(C)(C)C3)cc1` [C-ABR, 3-(4-Methoxy-phenyl)-6,6-dimethyl-3,5,6,7-tetrahydro-benzoimidazol-4-one] gave an IC50 [1] of 21 µM, a Selectivity [2] of 150 and an IC50 [3] of 0.13 µM.

Compound `CN1C(=O)COc2cc(-n3cnc4c3C(=O)CCC4)ccc21` [C-AAN, 4-Methyl-7-(7-oxo-4,5,6,7-tetrahydro-benzoimidazol-1-yl)-4H-benzo[1,4]oxazin-3-one] has an IC50 [1] greater than 30 µM, a Selectivity [2] of 360 and an IC50 [3] of 0.084 µM.

`O=C1CC2(CCOCC2)Cc2ncn(-c3ccc(Cl)cc3)c21` [C-AAR, 3-(4-Chloro-phenyl)-6,6-3-o-tetrahydropyran-3,5,6,7-tetrahydro-benzoimidazol-4-one] showed an IC50 [1] of 5 µM, a Selectivity [2] of 73 and an IC50 [3] of 0.069 µM.

With `CC1(C)CC(=O)c2c(ncn2C2CCc3ccccc32)C1` (stereo not drawn) [C-ACQ, 3-Indan-1-yl-6,6-dimethyl-3,5,6,7-tetrahydro-benzoimidazol-4-one] the IC50 [1] was greater than 30 µM, the Selectivity [2] was 130 and the IC50 [3] was 0.22 µM.

Work on “3-(4-Chloroophenyl)-6,6-spirocyclopropyl-3,5,6,7-tetrahydro-benzimidazolo-4-one [C-ACF]” yielded an IC50 [1] of 0.59 µM, a Selectivity [2] of 57 and an IC50 [3] of 0.01 µM.

`Cc1cc(-n2cnc3c2C(=O)CC2(CCOCC2)C3)ccc1C#N` [C-AAO, 2-Methyl-4-(7-oxospiro[4,6-dihydrobenzoimidazole-5,4′-tetrahydropyran]-1-yl)benzonitrile] showed an IC50 [1] of 2.3 µM, a Selectivity [2] of 30 and an IC50 [3] of 0.077 µM.

In the case of `CC1(C)CC(=O)c2c(ncn2-c2ccc(Cl)nc2)C1` [C-ABT, 3-(6-Chloro-pyridin-3-yl)-6,6-dimethyl-3,5,6,7-tetrahydro-benzoimidazol-4-one], the IC50 [1] is reported as 6.9 µM, the Selectivity [2] is reported as 30 and the IC50 [3] is reported as 0.23 µM.

`O=C1CCCc2ncn(-c3ccc4c(c3)COC4)c21` [C-AAB, 3-(1,3-Dihydro-isobenzofuran-5-yl)-3,5,6,7-tetrahydro-benzoimidazol-4-one] was tested, and the IC50 [1] was 23 µM, the Selectivity [2] was 270 and the IC50 [3] was 0.085 µM.

Work on `O=C1CC2(CCC2)Cc2ncn(-c3ccc(F)c(F)c3)c21` [C-ACE] yielded an IC50 [1] of 0.63 µM, a Selectivity [2] of 32 and an IC50 [3] of 0.02 µM.

In the case of `CC(C)Oc1ccc(-n2cnc3c2C(=O)CC(C)(C)C3)cc1Cl` [C-ABJ, 3-(3-Chloro-4-isopropoxy-phenyl)-6,6-dimethyl-3,5,6,7-tetrahydro-benzoimidazol-4-one], the IC50 [1] is reported as 95 µM, the Selectivity [2] is reported as 1300 and the IC50 [3] is reported as 0.075 µM.

Compound `CC1(C)CC(=O)c2c(ncn2-c2ccc(F)c(F)c2)C1` [C-ABC, 3-(3,4-Difluoro-phenyl)-6,6-dimethyl-3,5,6,7-tetrahydro-benzimidazol-4-one] has an IC50 [1] of 0.65 µM, a Selectivity [2] of 63 and an IC50 [3] of 0.01 µM.

With `CC1(C)CC(=O)c2c(ncn2-c2ccc3c(c2)OCO3)C1` [C-ABU, 3-Benzo[1,3]dioxol-5-yl-6,6-dimethyl-3,5,6,7-tetrahydro-benzoimidazol-4-one] the IC50 [1] was 4.2 µM, the Selectivity [2] was 120 and the IC50 [3] was 0.034 µM.

Work on `CC1(C)CC(=O)c2c(ncn2[C@H]2C[C@@H]3CC[C@H]2C3)C1` [C-ACL, 3-(1S,2S,3R)-Bicyclo[2.2.1]hept-2-1-6,6-dimethyl-3,5,6,7-tetrahydro-benzoimidazol-4-one] yielded an IC50 [1] of 16 µM, a Selectivity [2] of 87 and an IC50 [3] of 0.18 µM.
